Results taken from US5776919A, “Potentiators of antimicrobial activity” (priority 1996, dated 1998).
In brackets after ≈: the same amount, converted by molar mass. Several values for one entry are separate records, joined by “and”; a condition that tells them apart may be missing. Identical values can stand only once. Like-named read-outs stand apart in the source and are kept apart here.

What was measured:
Type in all cases: cell-based
[1] = test system: methicillin-resistant Staphylococcus aureus (ATCC 33591); test: MIC determination by broth dilution
Procedure: (§1) The MICs were determined by the broth dilution method. […] The assays were performed in duplicate.

[2] = test system: Candida albicans (ATCC 10231); test: MIC determination by broth dilution
Procedure: as §1

[3] = test system: Escherichia coli (ATCC 10536); test: MIC determination by broth dilution
Procedure: as §1

[4] = test system: Pseudomonas aeruginosa (ATCC 10145); test: MIC determination by broth dilution
Procedure: as §1

[5] = test system: Candida albicans (ATCC 10231); test: MBC determination
Procedure: (§2) After 24 hours of incubation, the colonies were counted.

[6] = test system: Escherichia coli (ATCC 10536); test: MBC determination
Procedure: as §2

[7] = test system: Pseudomonas aeruginosa (ATCC 10145); test: MBC determination
Procedure: as §2

[8] = test system: methicillin-resistant Staphylococcus aureus (ATCC 33591); test: MBC determination
Procedure: as §2

[9] = Staphylococcus aureus, ATCC 33591 / MRSA, 48 h, compound alone, MRSA ATCC 33591, 2 days at 37° C., read-out: MIC
[10] = compound alone, MRSA ATCC 33591, 2 days at 37° C.
[11] = compound alone, C. albicans ATCC 10231, 2 days at 37° C.
[12] = compound alone, E. coli ATCC 10536, 2 days at 37° C.
[13] = compound alone, P. aeruginosa (ATCC 10536 [sic]), 2 days at 37° C.
[14] = compound alone, C. albicans ATCC 10231
[15] = compound alone, E. coli ATCC 10536
[16] = compound alone, P. aeruginosa (ATCC 10536 [sic])
[17] = compound alone, MRSA ATCC 33591

Molecule | MIC [1, 9] [µg/mL] | MIC [1, 10] [µg/mL] | MIC [3, 12] | MIC [4, 13] [µg/mL] | MBC [6, 15] [µg/mL] | MBC [7, 16] [µg/mL] | other results
CCCCCCCCCCCCCO [Tridecanol, n-tridecanol] | 50 (≈ 0.25 mM) |  |  |  |  |  | 
COc1cccc(OC)c1C(=O)N[C@@H]1C(=O)N2[C@@H]1SC(C)(C)[C@@H]2C(=O)O [Methicillin, methicillin, reference compound] | 800 (≈ 2.1 mM) |  |  |  |  |  | 
CCCCCCCCCCCO [Undecanol, n-undecanol] | 50 (≈ 0.29 mM) |  |  |  |  |  | 
Anacardic Acid |  | 6.25 |  |  |  |  | 
C=CC/C=C\C/C=C\CCCCCCCc1cccc(O)c1C(=O)O [Anacardic Acid (15:3)] |  | 6.25 (≈ 0.0182 mM) |  |  |  |  | 
CCCCCCCCCCCCO [Dodecanol, n-dodecanol] | 80 (≈ 0.429 mM) |  |  |  |  |  | 
polymyxin E [reference compound] |  |  | 3.13 µg/mL | 6.25 | 6.25 | 12.5 | MIC [2, 11]: 1600 µg/mL; MBC [5, 14]: 1600 µg/mL
c1ccc2[nH]ccc2c1 [Indole, indole] |  |  |  |  |  |  | MIC ([2]; Candida albicans, ATCC10231, 48 h): 400 µg/mL (≈ 3.41 mM); MIC ([3]; Escherichia coli, ATCC10536, 48 h): 800 µg/mL (≈ 6.83 mM); MIC ([4]; Pseudomonas aeruginosa, ATCC 10145 / ATCC 10536, 48 h): 400 µg/mL (≈ 3.41 mM); MIC ([1]; Staphylococcus aureus, ATCC 33591 / MRSA, 48 h): 800 µg/mL (≈ 6.83 mM); MBC ([5]; Candida albicans, ATCC10231): 800 µg/mL (≈ 6.83 mM); MBC ([6]; Escherichia coli, ATCC10536): 800 µg/mL (≈ 6.83 mM); MBC ([7]; Pseudomonas aeruginosa, ATCC 10145 / ATCC 10536): 800 µg/mL (≈ 6.83 mM); MBC ([8]; Staphylococcus aureus, ATCC 33591 / MRSA): 800 µg/mL (≈ 6.83 mM)
polymyxin B [reference compound] |  | 800 | 3.13 µg/mL | 6.25 | 3.13 | 6.25 | MIC [2, 11]: 800 µg/mL; MBC [5, 14]: 1600 µg/mL; MBC [8, 17]: 800 µg/mL
CCC/C=C/C=O [2-Hexenal, t-2-hexenal] |  | 400 (≈ 4.08 mM) | 200 µg/mL and 400 µg/mL | 200 (≈ 2.04 mM) | 400 (≈ 4.08 mM) | 400 (≈ 4.08 mM) | MBC [8, 17]: 800 µg/mL (≈ 8.15 mM)
